Here are results for three molecules from article PMC7177833, “2-Aminopyridine Analogs Inhibit Both Enzymes of the Glyoxylate Shunt in Pseudomonas aeruginosa” (International Journal of Molecular Sciences, 2020).

Data set [1] has as its target T1, ICLPa (isocitrate lyase from P. aeruginosa) (Pseudomonas aeruginosa, UniProt Q9I0K4).
T1 construct: made in house
T1 sequence (Q9I0K4 1-531): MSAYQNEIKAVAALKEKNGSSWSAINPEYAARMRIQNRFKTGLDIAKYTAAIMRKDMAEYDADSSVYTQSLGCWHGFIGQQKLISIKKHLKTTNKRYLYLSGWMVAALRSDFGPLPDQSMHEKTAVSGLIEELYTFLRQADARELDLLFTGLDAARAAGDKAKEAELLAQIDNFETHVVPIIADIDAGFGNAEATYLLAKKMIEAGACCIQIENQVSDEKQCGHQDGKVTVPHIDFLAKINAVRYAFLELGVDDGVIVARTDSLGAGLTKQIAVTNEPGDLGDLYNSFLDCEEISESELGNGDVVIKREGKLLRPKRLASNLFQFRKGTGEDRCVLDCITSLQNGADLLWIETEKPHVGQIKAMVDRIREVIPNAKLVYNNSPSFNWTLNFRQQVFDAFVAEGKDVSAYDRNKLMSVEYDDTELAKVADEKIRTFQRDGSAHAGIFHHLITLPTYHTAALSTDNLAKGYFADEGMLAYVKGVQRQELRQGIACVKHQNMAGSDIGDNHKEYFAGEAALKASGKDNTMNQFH
The data set is described as follows: Inhibition of purified ICLPa enzymatic activity. The data set is classed as biochemical. The following applies: for inhibition at 75 µM: 75 µM compound, read-out: Enzyme Inhibition (%) at 75 µM ICLPa; for IC50: purified enzyme, 170 nM ICL. The protocol:
The enzymatic activity of purified ICLPa and MSPa was assayed essentially as previously described. Compounds were added to the reaction mixtures (minus substrates) and incubated for 5 min at 37 °C. The enzyme concentration in the reaction mixtures was 170 nM for ICL and 25 nM for MS (based on the concentration of the monomer in each case). […] The reactions were initiated by the addition of pH-adjusted substrates, and the initial rates were recorded as A324 nm (for ICLPa) and A412 nm (for MSPa) using a Biospectrometer (Eppendorf, Stevenage, UK). Substrate turnover was calculated from the molar extinction coefficient of the assay products: Glyoxylate-phenylhydrazone (16,800/M/cm) for ICLPa and 2-nitro-5-thiobenzoic acid (14,150/M/cm) for MSPa.
All data fitting was performed with GraphPad Prism version 7.04 (GraphPad Software, Inc., La Jolla, CA, USA). The solid lines are the result of fitting the data to the equations denoted in relevant experimental sections. IC50 values were determined by a nonlinear fit using the equation for sigmoidal dose-response with variable slope. In all graphs, unless otherwise stated, the data points are the mean of experimental triplicates, and all error bars correspond to ± standard deviation.

The nature of data set [2]: Metabolic stability in rat liver microsomes. The following applies: RLM; for Clh, int (predicted hepatic clearance): scaled; for Clh (predicted in vivo hepatic clearance): well-stirred model; for half-life at 0.5 µM / microsomal CLint at 0.5 µM: rat, pooled rat liver microsomes, pH 7.4. The class given is in vitro ADME. The protocol:
The metabolic stability of the test compounds was measured following incubation with liver microsomes from humans (BioIVT, lot no. IHG; West Sussex, UK) and rats (BD Gentest, lot no. 60614; BD Biosciences, Milan, Italy). Verapamil and dextromethorphan were used as positive controls. An automated incubation procedure was performed using the RSP Freedom Evo liquid dispensing and incubation system (TECAN, Milan, Italy). Five microliters of 50 µM test compound or positive control were added to 445 µL of microsomal suspension in 96 deep-well plates. The microsomal preparation comprised 0.56 mg/mL of pooled and homogenized liver microsomes suspended in 50 mM potassium phosphate buffer, pH 7.4. After 5 min at 37 °C, the reactions were initiated by adding 50 µL of prewarmed NADPH regenerating buffer to each sample. The regenerating buffer comprised a 2% NaHCO3 solution containing 1.7 mg NADP, 7.8 mg glucose-6-phosphate, and 6 units of glucose-6-phosphate dehydrogenase per mL. The samples were incubated at 37 °C, and 50 µL aliquots were withdrawn after 0, 3, 10, 15, 30, and 45 min and quenched in 150 µL acetonitrile. […] The analytical column was a Synergi “Max-RP” reverse phase C12 with TMS endcapping (30 mm × 2 mm, 4 µm particle size) (Phenomenex, Inc., Bologna, Italy). The column temperature was maintained at 60 °C. […] Analytes were quantified in multiple reaction-monitoring mode. Peak areas were integrated using Integrator Software from Agilent (Agilent Technologies, Milan, Italy) and were divided by the peak areas of the internal standard. The percentage of parent compound remaining was calculated by normalizing the peak area ratio of the parent compound to that of the internal standard at time 0. The half-lives of compound metabolism were derived from the linear portion of the slope of ln percent parent compound vs time. Intrinsic clearance in liver microsomes was estimated from: (1) Clint=k×(V/M) (2) Clh, int=(Clint (×1st Scaling factor)×2^ndScaling factor) (3) Clh=(Q×Clh, int)/(Q+Clh, int).
Here, k is the rate of depletion of the parent compound ([…]), V is the volume of the reaction mixture in mL, and M is the concentration of microsomal protein (in mg/mL). The amounts of protein in the incubations were scaled relative to the average liver- and body-mass of each species to obtain intrinsic hepatic clearance (Clh, int, in […]) (Table S3). These scaling factors were used along with the average hepatic blood flow (Q, in […]) of each species to obtain in vivo correlations (Clh, in mL/min/kg) using the well-stirred model.

Data set [3] has as its target T2, CYP3A4 (Homo sapiens, UniProt P08684).
T2 construct: pooled human liver microsomes; tissue BioIVT; host or cells: pooled human liver microsomes
The data set is described as follows: CYP450 inhibition in HLM, atorvastatin, nifedipine and midazolam probes. The data set is classed as in vitro ADME. The protocol: All incubations were carried out in triplicate.
The column temperature was maintained at 60 °C. […] The column temperature was maintained at 45 °C. […] The analytes were quantified in multiple reaction-monitoring mode.

Where [4] appears, read: atorvastatin probe, read-out: IC50 CYP450 3A4-ATR.
Setting [5] is: midazolam probe, read-out: IC50 CYP450 3A4- MDZ.
Setting [6] is: nifedipine probe, read-out: IC50 CYP450 3A4-NIF.

Where two headings read alike, the source gives them in different places.

T2 sequence (P08684 whole entry): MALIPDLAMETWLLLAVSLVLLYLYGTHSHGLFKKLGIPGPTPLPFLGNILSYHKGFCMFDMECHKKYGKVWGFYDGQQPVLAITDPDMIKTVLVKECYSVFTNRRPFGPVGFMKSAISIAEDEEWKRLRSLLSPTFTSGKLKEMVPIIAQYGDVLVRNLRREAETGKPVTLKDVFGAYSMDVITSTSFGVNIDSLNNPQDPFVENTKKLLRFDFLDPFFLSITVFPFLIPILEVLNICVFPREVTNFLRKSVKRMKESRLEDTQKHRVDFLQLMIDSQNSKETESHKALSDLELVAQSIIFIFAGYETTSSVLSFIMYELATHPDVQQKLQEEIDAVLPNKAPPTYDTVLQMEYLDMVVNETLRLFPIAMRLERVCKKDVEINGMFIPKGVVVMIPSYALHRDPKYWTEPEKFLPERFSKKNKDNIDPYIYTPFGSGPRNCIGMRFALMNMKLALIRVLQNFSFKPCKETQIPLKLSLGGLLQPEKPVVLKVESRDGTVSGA

Consider `CC(C)(C)OC(=O)/N=C(\NC(=O)OC(C)(C)C)Nc1cc(Cl)ccn1` [SB002], for which, in data set [1], the inhibition at 75 µM amounted to 100% and 13.3 µM corresponded to half-maximal inhibition (IC50). Moreover, in data set [2], the “Clh, int (predicted hepatic clearance)” value is recorded as 62.99 mL/min/kg; the “Clh (predicted in vivo hepatic clearance)” value is recorded as 36.18 mL/min/kg; the half-life at 0.5 µM stood at 51 min; the microsomal CLint at 0.5 µM turned out to be 27.3 µL/min/mg. For the same molecule, in data set [3] (setting [4]), the IC50 was more than 100 µM. In addition, the IC50 in data set [3] (setting [5]) is more than 100 µM. In addition, the IC50 in data set [3] (setting [6]) was more than 100 µM.
Turning to `CC(C)(C)OC(=O)/N=C(\NC(=O)OC(C)(C)C)Nc1cc(C#N)ccn1` [SB023], in data set [1], the inhibition at 75 µM was determined as 34.7% and the IC50 is 92.5 µM. In addition, in data set [2], the “Clh, int (predicted hepatic clearance)” value was 124.58 mL/min/kg; the “Clh (predicted in vivo hepatic clearance)” value is 50.53 mL/min/kg; the half-life at 0.5 µM turned out to be 25.8 min; the microsomal CLint at 0.5 µM worked out at 53.9 µL/min/mg. For the same molecule, in data set [3] (setting [4]), the IC50 was more than 100 µM. Besides, the IC50 in data set [3] (setting [5]) is more than 100 µM. In data set [3] (setting [6]), the IC50 was more than 100 µM.
Turning to `Nc1cc(Cl)ccn1` [Compound 2-AP, 2-amino-4-chloropyridine, reference compound], in data set [1], the inhibition at 75 µM was 21% and the IC50 is more than 75 µM. Also, in data set [2], the “Clh, int (predicted hepatic clearance)” value is reported as 14.63 mL/min/kg; the “Clh (predicted in vivo hepatic clearance)” value is given as 12.48 mL/min/kg; the half-life at 0.5 µM was 220 min; the microsomal CLint at 0.5 µM turned out to be 6.33 µL/min/mg. Also, the IC50 in data set [3] (setting [5]) is more than 100 µM.

One may read the inhibition as how much of the control response was suppressed. The IC50 is the point on the concentration scale where inhibition reaches its midpoint. As a reminder, the half-life is the time needed for the level to fall by half in the phase considered. By microsomal CLint is commonly meant the rate of metabolic loss divided by the concentration.
